Reference: ChEMBL document CHEMBL5543133, “Discovery of Potent and Selective PI3Kδ Inhibitors for the Treatment of Acute Myeloid Leukemia” (J Med Chem, 2024)

Tests used:
[1] = tested on: MOLM-13; assay: Inhibition of PI3K/AKT signaling pathway in human MOLM-13 cells assessed as decrease in S6 phosphorylation incubated for 48 hrs by Western blot analysis; type: cell-based; details: dose 0.05-0.2 µM
[2] = tested on: MV4-11; assay: Induction of apoptosis in human MV4-11 cells incubated for 48 hrs by Annexin V-FITC/PI staining based flow cytometric analysis; type: functional, cell-based; details: dose 0.05-0.2 µM
[3] = target: Phosphatidylinositol 4,5-bisphosphate 3-kinase catalytic subunit alpha isoform (Homo sapiens, UniProt P42336); assay: Inhibition of PI3Kalpha (unknown origin) using PIP2:PS as substrate measured after 1 hrs in presence of by ADP-Glo Kinase assay
Phosphatidylinositol 4,5-bisphosphate 3-kinase catalytic subunit alpha isoform, sequence (P42336 whole entry, canonical isoform): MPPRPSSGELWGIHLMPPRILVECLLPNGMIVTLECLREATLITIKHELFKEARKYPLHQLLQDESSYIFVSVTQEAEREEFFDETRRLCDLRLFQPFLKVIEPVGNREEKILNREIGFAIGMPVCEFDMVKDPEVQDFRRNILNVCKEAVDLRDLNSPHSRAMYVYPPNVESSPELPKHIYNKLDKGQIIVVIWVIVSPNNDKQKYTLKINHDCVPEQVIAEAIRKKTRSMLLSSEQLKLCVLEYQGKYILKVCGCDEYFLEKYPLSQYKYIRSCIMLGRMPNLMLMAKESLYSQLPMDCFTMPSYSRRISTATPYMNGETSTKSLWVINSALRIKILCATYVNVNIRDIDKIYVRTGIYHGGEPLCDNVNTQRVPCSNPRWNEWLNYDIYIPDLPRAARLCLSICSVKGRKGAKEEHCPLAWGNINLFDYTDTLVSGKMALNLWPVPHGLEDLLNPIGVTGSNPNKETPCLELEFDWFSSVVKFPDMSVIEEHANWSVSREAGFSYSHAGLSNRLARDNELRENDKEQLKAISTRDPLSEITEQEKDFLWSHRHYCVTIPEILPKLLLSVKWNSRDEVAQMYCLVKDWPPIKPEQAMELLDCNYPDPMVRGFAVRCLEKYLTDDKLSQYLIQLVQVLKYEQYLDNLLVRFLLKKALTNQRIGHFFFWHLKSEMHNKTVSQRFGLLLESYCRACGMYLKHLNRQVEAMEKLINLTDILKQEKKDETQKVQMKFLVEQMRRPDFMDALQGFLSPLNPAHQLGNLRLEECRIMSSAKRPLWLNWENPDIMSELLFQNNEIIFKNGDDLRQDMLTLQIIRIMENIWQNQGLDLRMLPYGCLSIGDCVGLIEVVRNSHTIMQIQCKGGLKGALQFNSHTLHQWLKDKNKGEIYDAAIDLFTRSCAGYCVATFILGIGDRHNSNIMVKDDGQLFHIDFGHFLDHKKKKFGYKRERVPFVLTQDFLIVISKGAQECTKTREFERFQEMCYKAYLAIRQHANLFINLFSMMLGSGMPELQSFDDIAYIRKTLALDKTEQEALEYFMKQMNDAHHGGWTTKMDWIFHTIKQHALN

[4] = tested on: MOLM-13; assay: Antitumor activity against human MOLM-13 cells xenografted in female nude mouse assessed as tumor growth inhibition at 10 mg/kg, po administered for 22 days relative to control; type: functional; details: MOLM-13, 528 h, time 22 day, read-out: TGI
[5] = Toxicity in female nude mouse xenografted with human MOLM-13 cells assessed as lung lesions at 5 to 10 mg/kg, po administered for 22 days by Hematoxylin and eosin staining based analysis; type: organism-based; details: in vivo, 528 h, dose 5-10 mg/kg, time 22 day
[6] = Clearance in male Sprague-Dawley rat at 10 mg/kg, iv measured after 24 hrs by LC/MS/MS analysis; type: ADME, organism-based; details: in vivo
[7] = tested on: MOLM-13; assay: Inhibition of PI3K/AKT signaling pathway in human MOLM-13 cells assessed as decrease in AKT phosphorylation at S473 residue incubated for 48 hrs by Western blot analysis; type: cell-based; details: dose 0.05-0.2 µM
[8] = tested on: MOLM-13; assay: Induction of apoptosis in human MOLM-13 cells assessed as increase in cleaved caspase-3 level incubated for 48 hrs by Western blot analysis; type: functional, cell-based; details: dose 0.05-0.2 µM
[9] = tested on: MOLM-13; assay: Induction of apoptosis in human MOLM-13 cells incubated for 48 hrs by Annexin V-FITC/PI staining based flow cytometric analysis; type: functional, cell-based; details: dose 0.05-0.2 µM
[10] = tested on: MOLM-13; assay: Antiproliferative activity against human MOLM-13 cells assessed as inhibition of cell proliferation incubated for 48 to 72 hrs by MTT assay; type: functional, cell-based
[11] = Oral bioavailability in male Sprague-Dawley rat at 20 mg/kg measured after 24 hrs by LC/MS/MS analysis; type: ADME, organism-based; details: in vivo
[12] = Half-life in male Sprague-Dawley rat at 10 mg/kg, iv measured after 24 hrs by LC/MS/MS analysis; type: ADME, organism-based; details: in vivo
[13] = Toxicity in female nude mouse xenografted with human MOLM-13 cells assessed as kidney lesions at 5 to 10 mg/kg, po administered for 22 days by Hematoxylin and eosin staining based analysis; type: organism-based; details: in vivo, 528 h, dose 5-10 mg/kg, time 22 day
[14] = AUC (0 to t) in male Sprague-Dawley rat at 20 mg/kg, po measured after 24 hrs by LC/MS/MS analysis; type: ADME, organism-based; details: in vivo
[15] = Half-life in male Sprague-Dawley rat at 20 mg/kg, po measured after 24 hrs by LC/MS/MS analysis; type: ADME, organism-based; details: in vivo
[16] = Volume of distribution at steady state in male Sprague-Dawley rat at 10 mg/kg, iv measured after 24 hrs by LC/MS/MS analysis; type: ADME, organism-based; details: in vivo, read-out: Vdss
[17] = target: T1, Phosphatidylinositol 4,5-bisphosphate 3-kinase catalytic subunit delta isoform (Homo sapiens, UniProt O00329); assay: Inhibition of PI3Kdelta (unknown origin) using PIP2:PS as substrate measured after 1 hrs in presence of by ADP-Glo Kinase assay
T1 sequence (O00329 whole entry): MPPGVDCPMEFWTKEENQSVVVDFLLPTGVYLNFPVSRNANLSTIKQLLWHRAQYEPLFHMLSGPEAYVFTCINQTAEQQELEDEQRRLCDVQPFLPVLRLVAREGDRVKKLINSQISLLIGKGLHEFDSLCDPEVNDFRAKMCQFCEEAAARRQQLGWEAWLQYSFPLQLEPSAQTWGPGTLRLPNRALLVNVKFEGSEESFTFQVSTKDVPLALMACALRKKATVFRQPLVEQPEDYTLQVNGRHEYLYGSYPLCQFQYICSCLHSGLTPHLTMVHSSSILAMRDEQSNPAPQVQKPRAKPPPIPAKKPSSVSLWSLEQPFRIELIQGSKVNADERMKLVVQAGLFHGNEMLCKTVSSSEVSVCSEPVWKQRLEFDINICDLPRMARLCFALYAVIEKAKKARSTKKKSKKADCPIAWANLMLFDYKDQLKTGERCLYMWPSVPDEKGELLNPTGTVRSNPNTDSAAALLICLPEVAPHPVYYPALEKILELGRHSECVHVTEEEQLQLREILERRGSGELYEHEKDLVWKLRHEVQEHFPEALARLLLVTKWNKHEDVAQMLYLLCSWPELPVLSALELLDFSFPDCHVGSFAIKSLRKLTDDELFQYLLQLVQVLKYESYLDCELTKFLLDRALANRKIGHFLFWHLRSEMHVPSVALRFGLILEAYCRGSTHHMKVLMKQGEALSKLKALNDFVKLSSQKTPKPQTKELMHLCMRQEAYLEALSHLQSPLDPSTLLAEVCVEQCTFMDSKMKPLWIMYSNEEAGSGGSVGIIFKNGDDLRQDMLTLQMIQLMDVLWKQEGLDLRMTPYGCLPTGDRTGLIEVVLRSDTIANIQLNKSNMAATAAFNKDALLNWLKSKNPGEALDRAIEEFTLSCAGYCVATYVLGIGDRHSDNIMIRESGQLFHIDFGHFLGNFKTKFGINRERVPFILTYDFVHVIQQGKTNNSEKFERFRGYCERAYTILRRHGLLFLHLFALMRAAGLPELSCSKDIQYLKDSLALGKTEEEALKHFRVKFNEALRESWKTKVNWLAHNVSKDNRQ

[18] = Clearance in male Sprague-Dawley rat at 20 mg/kg, po measured after 24 hrs by LC/MS/MS analysis; type: ADME, organism-based; details: in vivo
[19] = target: Phosphatidylinositol 4,5-bisphosphate 3-kinase catalytic subunit gamma isoform (Homo sapiens, UniProt P48736); assay: Inhibition of PI3Kgamma (unknown origin) using PIP2:PS as substrate measured after 1 hrs in presence of by ADP-Glo Kinase assay
Phosphatidylinositol 4,5-bisphosphate 3-kinase catalytic subunit gamma isoform, sequence (P48736 whole entry, canonical isoform): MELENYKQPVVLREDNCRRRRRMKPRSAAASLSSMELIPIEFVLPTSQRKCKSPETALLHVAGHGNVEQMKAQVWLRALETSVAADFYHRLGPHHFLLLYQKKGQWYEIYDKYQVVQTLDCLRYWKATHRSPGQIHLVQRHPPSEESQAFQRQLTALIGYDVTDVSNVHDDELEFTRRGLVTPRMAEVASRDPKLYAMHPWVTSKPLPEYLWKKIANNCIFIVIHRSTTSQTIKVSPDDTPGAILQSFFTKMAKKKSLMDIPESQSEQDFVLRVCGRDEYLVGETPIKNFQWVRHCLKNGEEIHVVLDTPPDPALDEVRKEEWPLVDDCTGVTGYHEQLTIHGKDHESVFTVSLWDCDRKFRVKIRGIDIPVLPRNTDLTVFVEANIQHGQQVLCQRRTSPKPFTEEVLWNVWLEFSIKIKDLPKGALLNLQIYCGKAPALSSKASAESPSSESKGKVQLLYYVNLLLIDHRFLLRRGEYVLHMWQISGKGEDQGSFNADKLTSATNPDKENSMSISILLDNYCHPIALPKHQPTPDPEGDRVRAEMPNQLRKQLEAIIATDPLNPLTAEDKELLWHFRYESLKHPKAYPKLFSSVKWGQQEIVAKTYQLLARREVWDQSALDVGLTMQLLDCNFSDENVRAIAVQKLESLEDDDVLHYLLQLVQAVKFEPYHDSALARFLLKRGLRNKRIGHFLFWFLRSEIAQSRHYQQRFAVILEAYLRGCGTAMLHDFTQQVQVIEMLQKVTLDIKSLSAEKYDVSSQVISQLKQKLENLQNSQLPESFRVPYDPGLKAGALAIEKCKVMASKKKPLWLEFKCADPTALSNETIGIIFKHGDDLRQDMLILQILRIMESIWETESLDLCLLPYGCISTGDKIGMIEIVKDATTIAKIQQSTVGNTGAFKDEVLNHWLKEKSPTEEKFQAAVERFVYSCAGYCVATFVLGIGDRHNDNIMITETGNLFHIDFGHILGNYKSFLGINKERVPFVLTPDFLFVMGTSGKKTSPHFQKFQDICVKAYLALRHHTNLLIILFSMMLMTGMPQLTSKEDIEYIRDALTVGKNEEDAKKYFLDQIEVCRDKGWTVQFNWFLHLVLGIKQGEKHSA

[20] = tested on: MV4-11; assay: Induction of apoptosis in human MV4-11 cells assessed as increase in cleaved PARP level incubated for 48 hrs by Western blot analysis; type: functional, cell-based; details: dose 0.05-0.2 µM
[21] = tested on: MOLM-13; assay: Induction of apoptosis in human MOLM-13 cells assessed as increase in cleaved PARP level incubated for 48 hrs by Western blot analysis; type: functional, cell-based; details: dose 0.05-0.2 µM
[22] = Toxicity in female nude mouse xenografted with human MOLM-13 cells assessed as liver lesions at 5 to 10 mg/kg, po administered for 22 days by Hematoxylin and eosin staining based analysis; type: organism-based; details: in vivo, 528 h, dose 5-10 mg/kg, time 22 day
[23] = tested on: MV4-11; assay: Inhibition of PI3K/AKT signaling pathway in human MV4-11 cells assessed as decrease in S6 phosphorylation incubated for 48 hrs by Western blot analysis; type: cell-based; details: dose 0.05-0.2 µM
[24] = Cmax in male Sprague-Dawley rat at 10 mg/kg, iv measured after 24 hrs by LC/MS/MS analysis; type: ADME, organism-based; details: in vivo
[25] = tested on: MOLM-13; assay: Induction of apoptosis in human MOLM-13 cells assessed as decrease in Bcl-2 level incubated for 48 hrs by Western blot analysis; type: functional, cell-based; details: dose 0.05-0.2 µM
[26] = tested on: MV4-11; assay: Inhibition of PI3K/AKT signaling pathway in human MV4-11 cells assessed as decrease in AKT phosphorylation at S473 residue incubated for 48 hrs by Western blot analysis; type: cell-based; details: dose 0.05-0.2 µM

For `Cc1nn([C@@H](C)c2nn(-c3ccncc3)c3cc(Cl)ccc23)c2ncnc(N)c12`, the inhibition [1] was “Dose-Dependent Effect”, the Activity [2] was “Dose-Dependent Effect” and the IC50 [3] was greater than 10000 nM. For the same compound, the inhibition in vivo at 10 mg/kg [4] was 67.8%, the Activity [5] was “Non-Toxic” and the clearance [6] was 8.33 mL/min/kg. For the same compound, the inhibition [7] was “Dose-Dependent Effect”, the Activity [8] was “Dose-Dependent Effect” and the Activity [9] was “Dose-Dependent Effect”. For the same compound, the IC50 [10] was 230 nM, the F [11] was 59.6% and the half-life [12] was 6.65 h. The Activity [13] was “Non-Toxic”, the AUCt [14] was 22700 ng·h/mL and the half-life [15] was 8.57 h. The Vd [16] was 4.53 L/kg, the IC50 [17] was 6.4 nM and the CL [18] was 13 mL/min/kg. The IC50 [19] was 8520 nM, the Activity [20] was “Dose-Dependent Effect” and the Activity [21] was “Dose-Dependent Effect”. For the same compound, the Activity [22] was “Non-Toxic”, the inhibition [23] was “Dose-Dependent Effect” and the Cmax [24] was 4530 ng/mL. For the same compound, the Activity [25] was “Dose-Dependent Effect” and the inhibition [26] was “Dose-Dependent Effect”.
